Patent US20260092071A1, “COMPOUNDS AND COMPOSITIONS AS SMARCA2/4 DEGRADERS AND USES THEREOF” (REGENTS OF THE UNIVERSITY OF MICHIGAN, priority 2022, published 2026)
Where two headings read alike, the source gives them in different places.

Key:
[1] = molecular target: SMARCA4 (Homo sapiens, UniProt P51532); experiment: HiBiT assay for protein degradation, Hela SMARCA4-HiBiT cells (A series); format: cell-based; parameters: fuse HiBiT to the carboxy terminus of SMARCA2 (Promega CS302365) or SMARCA4 (Promega CS3023225); host or cells: HeLa (CRISPR/Cas9 HiBiT knock-in); conditions: Hela SMARCA4-HiBiT cells, 24 hours treatment; for DC50: read-out: SMARC A4 Hela HiBit DC50
Sequence of SMARCA4 (P51532 whole entry, the tested form may be a part): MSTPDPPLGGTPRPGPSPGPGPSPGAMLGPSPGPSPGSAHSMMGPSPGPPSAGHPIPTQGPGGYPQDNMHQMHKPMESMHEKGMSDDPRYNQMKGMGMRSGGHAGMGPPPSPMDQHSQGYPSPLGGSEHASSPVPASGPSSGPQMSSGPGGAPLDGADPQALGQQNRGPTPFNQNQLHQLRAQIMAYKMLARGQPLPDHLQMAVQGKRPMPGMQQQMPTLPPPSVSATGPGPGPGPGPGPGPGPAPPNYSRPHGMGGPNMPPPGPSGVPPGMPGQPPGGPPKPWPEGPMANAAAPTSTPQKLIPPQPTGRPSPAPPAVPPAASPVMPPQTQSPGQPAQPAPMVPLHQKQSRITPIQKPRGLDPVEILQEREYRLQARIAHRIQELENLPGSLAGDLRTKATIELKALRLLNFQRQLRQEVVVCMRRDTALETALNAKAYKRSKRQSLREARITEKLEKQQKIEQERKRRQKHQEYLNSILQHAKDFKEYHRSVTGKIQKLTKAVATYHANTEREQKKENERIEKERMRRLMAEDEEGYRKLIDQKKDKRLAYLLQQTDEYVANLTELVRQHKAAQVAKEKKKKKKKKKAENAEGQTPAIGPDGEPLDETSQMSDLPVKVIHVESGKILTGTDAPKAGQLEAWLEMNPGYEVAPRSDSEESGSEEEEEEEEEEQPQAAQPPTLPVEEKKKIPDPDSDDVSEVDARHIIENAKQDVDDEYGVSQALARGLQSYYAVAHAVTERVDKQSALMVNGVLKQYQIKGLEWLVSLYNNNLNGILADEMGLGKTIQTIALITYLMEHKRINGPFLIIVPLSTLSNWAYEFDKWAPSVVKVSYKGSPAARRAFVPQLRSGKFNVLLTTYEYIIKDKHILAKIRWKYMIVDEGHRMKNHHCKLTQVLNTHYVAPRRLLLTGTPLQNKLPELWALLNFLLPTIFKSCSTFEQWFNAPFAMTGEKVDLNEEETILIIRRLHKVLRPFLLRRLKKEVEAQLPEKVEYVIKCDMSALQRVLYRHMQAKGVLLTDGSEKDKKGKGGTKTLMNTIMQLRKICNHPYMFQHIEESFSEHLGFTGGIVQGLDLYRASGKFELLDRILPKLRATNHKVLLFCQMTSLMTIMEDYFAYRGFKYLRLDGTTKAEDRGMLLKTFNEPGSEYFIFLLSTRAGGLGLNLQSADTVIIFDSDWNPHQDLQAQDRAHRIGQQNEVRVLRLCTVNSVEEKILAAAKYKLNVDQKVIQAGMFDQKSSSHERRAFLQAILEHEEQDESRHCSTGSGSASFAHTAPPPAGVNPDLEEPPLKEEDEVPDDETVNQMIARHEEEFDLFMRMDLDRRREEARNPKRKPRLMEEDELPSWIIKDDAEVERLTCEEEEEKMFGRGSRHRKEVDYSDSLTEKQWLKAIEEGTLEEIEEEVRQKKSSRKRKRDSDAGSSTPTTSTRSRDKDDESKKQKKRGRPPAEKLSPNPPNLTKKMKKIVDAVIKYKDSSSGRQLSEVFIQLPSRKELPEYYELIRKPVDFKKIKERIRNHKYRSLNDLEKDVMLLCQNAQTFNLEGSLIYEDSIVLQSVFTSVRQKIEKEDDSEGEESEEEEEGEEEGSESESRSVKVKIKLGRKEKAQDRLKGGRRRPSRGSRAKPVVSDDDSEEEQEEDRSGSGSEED
Procedure, shortened: (§1)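 HeLa cells engineered by CRISPR/Cas9 to carry a HiBiT tag fused to the C-terminus of SMARCA4 (Promega CS3023225) were grown in DMEM supplemented with FBS and penicillin-streptomycin. After compound exposure, remaining SMARCA4 protein was quantified using the Nano-Glo® HiBiT Lytic Detection Assay (Promega N3050), and curves were fitted in GraphPad Prism.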

[2] = molecular target: SMARCA2 (Homo sapiens, UniProt P51531); experiment: HiBiT assay for protein degradation, Hela SMARCA2-HiBiT cells (A series); format: cell-based; parameters: Hela cells were genetically modified via CRISPR/Cas9 to fuse HiBiT to the carboxy terminus of SMARCA2; host or cells: HeLa (CRISPR/Cas9 HiBiT knock-in); conditions: for Dmax: read-out: SMARC A2 Hela HiBit Dmax (%); for DC50: read-out: SMARC A2 Hela HiBit DC50;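 as to SMARC A2 Hela HiBit Dmax (%): 24 h compound treatment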
Sequence of SMARCA2 (P51531 whole entry): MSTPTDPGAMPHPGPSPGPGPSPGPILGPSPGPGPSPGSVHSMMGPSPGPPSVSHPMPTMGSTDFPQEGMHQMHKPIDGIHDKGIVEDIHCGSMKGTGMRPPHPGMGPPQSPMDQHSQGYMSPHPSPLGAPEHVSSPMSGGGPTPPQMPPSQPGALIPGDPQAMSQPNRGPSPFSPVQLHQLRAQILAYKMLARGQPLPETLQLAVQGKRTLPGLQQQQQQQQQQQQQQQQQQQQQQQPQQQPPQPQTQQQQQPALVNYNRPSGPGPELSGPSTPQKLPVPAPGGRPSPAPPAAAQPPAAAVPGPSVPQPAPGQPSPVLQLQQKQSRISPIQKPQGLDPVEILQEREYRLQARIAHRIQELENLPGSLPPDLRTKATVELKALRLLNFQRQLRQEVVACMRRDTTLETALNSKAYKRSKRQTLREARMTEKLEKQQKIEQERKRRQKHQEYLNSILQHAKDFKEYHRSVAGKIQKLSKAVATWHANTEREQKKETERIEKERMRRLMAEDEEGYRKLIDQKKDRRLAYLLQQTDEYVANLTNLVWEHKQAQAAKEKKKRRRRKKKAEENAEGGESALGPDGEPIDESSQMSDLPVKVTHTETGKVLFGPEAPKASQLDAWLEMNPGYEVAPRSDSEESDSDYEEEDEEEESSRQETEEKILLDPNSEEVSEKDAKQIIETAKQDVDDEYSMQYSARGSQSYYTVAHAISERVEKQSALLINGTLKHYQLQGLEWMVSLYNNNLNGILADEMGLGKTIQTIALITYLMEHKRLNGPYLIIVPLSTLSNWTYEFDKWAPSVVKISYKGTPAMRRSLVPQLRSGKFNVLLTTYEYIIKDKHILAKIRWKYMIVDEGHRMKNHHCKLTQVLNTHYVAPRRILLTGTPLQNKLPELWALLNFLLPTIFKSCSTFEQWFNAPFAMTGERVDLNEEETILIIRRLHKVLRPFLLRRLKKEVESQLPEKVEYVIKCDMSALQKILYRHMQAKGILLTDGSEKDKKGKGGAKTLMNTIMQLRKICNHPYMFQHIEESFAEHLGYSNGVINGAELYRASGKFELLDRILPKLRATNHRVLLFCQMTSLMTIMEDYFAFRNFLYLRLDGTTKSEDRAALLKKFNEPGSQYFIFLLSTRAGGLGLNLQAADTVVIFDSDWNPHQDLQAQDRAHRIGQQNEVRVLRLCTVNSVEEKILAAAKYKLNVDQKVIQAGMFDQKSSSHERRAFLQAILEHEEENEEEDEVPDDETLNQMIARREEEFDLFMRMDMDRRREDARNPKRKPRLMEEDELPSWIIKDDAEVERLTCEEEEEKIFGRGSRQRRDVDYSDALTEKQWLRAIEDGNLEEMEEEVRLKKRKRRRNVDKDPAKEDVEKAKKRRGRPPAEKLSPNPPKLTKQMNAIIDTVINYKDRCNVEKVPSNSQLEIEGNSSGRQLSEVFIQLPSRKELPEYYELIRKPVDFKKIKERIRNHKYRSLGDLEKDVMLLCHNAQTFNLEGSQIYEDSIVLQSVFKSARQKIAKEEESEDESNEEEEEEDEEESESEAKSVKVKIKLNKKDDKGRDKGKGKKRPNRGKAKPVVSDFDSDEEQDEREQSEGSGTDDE
Procedure, shortened: as §1, with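 “SMARCA2” for “SMARCA4”, “CS302365)” for “CS3023225)”, “treatment,” for “compound exposure,”, “with” for “using”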

[3] = Hela SMARCA2-HiBiT cells, 24 hours treatment
[4] = read-out: SMARC A4 Hela HiBit Dmax(%)
[5] = read-out: SMARC A4 Hela HiBit Dmax

| SMILES | DC50 [1] [nM] | Dmax ([2]; HeLa) [%] | DC50 [2, 3] [nM] | Dmax [1, 4] [%] | Dmax [2, 3] [%] | Dmax [1, 5] [%] |
| --- | --- | --- | --- | --- | --- | --- |
| C[C@H](NC(=O)[C@@H]1C[C@@H](O)CN1C(=O)[C@@H](n1cc([C@H]2CC[C@H](CN3CCC(c4ccc5c(c4)-n4c(nc(=O)c6c(Br)cccc64)C54CCCCC4)CC3)CC2)nn1)C(C)(C)C)c1ccc(Cl)cc1 [Compound A68, (2S,4R)-1-((S)-2-(4-((1r,4S)-4-((4-(4′-bromo-5′-oxo-5′H-spiro[cyclohexane-1,7′-indolo[1,2-a]quinazolin]-10′-yl)piperidin-1-yl)methyl)cyclohexyl)-1H-1,2,3-triazol-1-yl)-3,3-dimethylbutanoyl)-N—((S)-1-(4-chlorophenyl)ethyl)-4-hydroxypyrrolidine-2-carboxamide] | > 1000 | > 90 | < 100 |  |  |  |
| Cc1ncsc1-c1ccc([C@H](CN2CC(C)(O)C2)NC(=O)[C@@H]2C[C@@H](O)CN2C(=O)[C@@H](n2cc([C@H]3CC[C@H](CN4CCC(c5ccc6c(c5)-n5c(nc(=O)c7c(Cl)cccc75)C65CCCCC5)CC4)CC3)nn2)C(C)(C)C)cc1 [Compound A71, (2S,4R)-1-((S)-2-(4-((1r,4S)-4-((4-(4′-chloro-5′-oxo-5′H-spiro[cyclohexane-1,7′-indolo[1,2-a]quinazolin]-10′-yl)piperidin-1-yl)methyl)cyclohexyl)-1H-1,2,3-triazol-1-yl)-3,3-dimethylbutanoyl)-4-hydroxy-N—((R)-2-(3-hydroxy-3-methylazetidin-1-yl)-1-(4-(4-methylthiazol-5-yl)phenyl)ethyl)pyrrolidine-2-carboxamide] | > 1000 |  | < 100 | 50 to 69 | > 90 |  |
| Cc1ncsc1-c1ccc([C@H](CN2CCS(=O)(=O)CC2)NC(=O)[C@@H]2C[C@@H](O)CN2C(=O)[C@@H](n2cc([C@H]3CC[C@H](CN4CCC(c5ccc6c(c5)-n5c(nc(=O)c7c(Cl)cccc75)C65CCCCC5)CC4)CC3)nn2)C(C)(C)C)cc1 [Compound A72, (2S,4R)-1-((S)-2-(4-((1r,4S)-4-((4-(4′-chloro-5′-oxo-5′H-spiro[cyclohexane-1,7′-indolo[1,2-a]quinazolin]-10′-yl)piperidin-1-yl)methyl)cyclohexyl)-1H-1,2,3-triazol-1-yl)-3,3-dimethylbutanoyl)-N—((R)-2-(1,1-dioxidothiomorpholino)-1-(4-(4-methylthiazol-5-yl)phenyl)ethyl)-4-hydroxypyrrolidine-2-carboxamide] | > 1000 |  | < 100 | < 50 | > 90 |  |
| Cc1ncsc1-c1ccc([C@H](CN2CCC(O)CC2)NC(=O)[C@@H]2C[C@@H](O)CN2C(=O)[C@@H](n2cc([C@H]3CC[C@H](CN4CCC(c5ccc6c(c5)-n5c(nc(=O)c7c(Cl)cccc75)C65CCCCC5)CC4)CC3)nn2)C(C)(C)C)cc1 [Compound A73, (2S,4R)-1-((S)-2-(4-((1r,4S)-4-((4-(4′-chloro-5′-oxo-5′H-spiro[cyclohexane-1,7′-indolo[1,2-a]quinazolin]-10′-yl)piperidin-1-yl)methyl)cyclohexyl)-1H-1,2,3-triazol-1-yl)-3,3-dimethylbutanoyl)-4-hydroxy-N—((R)-2-(4-hydroxypiperidin-1-yl)-1-(4-(4-methylthiazol-5-yl)phenyl)ethyl)pyrrolidine-2-carboxamide] | > 1000 |  | < 100 | 50 to 69 | > 90 |  |
| Cc1ncsc1-c1ccc([C@H](CN2CC(C)(F)C2)NC(=O)[C@@H]2C[C@@H](O)CN2C(=O)[C@@H](n2cc([C@H]3CC[C@H](CN4CCC(c5ccc6c(c5)-n5c(nc(=O)c7c(Cl)cccc75)C65CCCCC5)CC4)CC3)nn2)C(C)(C)C)cc1 [Compound A74, (2S,4R)-1-((S)-2-(4-((1r,4S)-4-((4-(4′-chloro-5′-oxo-5′H-spiro[cyclohexane-1,7′-indolo[1,2-a]quinazolin]-10′-yl)piperidin-1-yl)methyl)cyclohexyl)-1H-1,2,3-triazol-1-yl)-3,3-dimethylbutanoyl)-N—((R)-2-(3-fluoro-3-methylazetidin-1-yl)-1-(4-(4-methylthiazol-5-yl)phenyl)ethyl)-4-hydroxypyrrolidine-2-carboxamide] | > 1000 |  | < 100 | 50 to 69 | > 90 |  |
| Cc1ncsc1-c1ccc([C@H](CN2CCC(F)(F)CC2)NC(=O)[C@@H]2C[C@@H](O)CN2C(=O)[C@@H](n2cc([C@H]3CC[C@H](CN4CCC(c5ccc6c(c5)-n5c(nc(=O)c7c(Cl)cccc75)C65CCCCC5)CC4)CC3)nn2)C(C)(C)C)cc1 [Compound A75, (2S,4R)-1-((S)-2-(4-((1r,4S)-4-((4-(4′-chloro-5′-oxo-5′H-spiro[cyclohexane-1,7′-indolo[1,2-a]quinazolin]-10′-yl)piperidin-1-yl)methyl)cyclohexyl)-1H-1,2,3-triazol-1-yl)-3,3-dimethylbutanoyl)-N—((R)-2-(4,4-difluoropiperidin-1-yl)-1-(4-(4-methylthiazol-5-yl)phenyl)ethyl)-4-hydroxypyrrolidine-2-carboxamide] | > 1000 |  | < 100 | < 50 | > 90 |  |
| Cc1ncsc1-c1ccc([C@H](C)NC(=O)[C@@H]2C[C@@H](O)CN2C(=O)[C@@H](n2cc([C@H]3CC[C@H](CN4CCC(c5cnc6c(c5)-n5c(nc(=O)c7c(Br)cccc75)C65CCCCC5)CC4)CC3)nn2)C(C)(C)C)cc1 [Compound A76, (2S,4R)-1-((S)-2-(4-((1r,4S)-4-((4-(4′-bromo-5′-oxo-5′H-spiro[cyclohexane-1,7′-pyrido[2′,3′: 4,5]pyrrolo[1,2-a]quinazolin]-10′-yl)piperidin-1-yl)methyl)cyclohexyl)-1H-1,2,3-triazol-1-yl)-3,3-dimethylbutanoyl)-4-hydroxy-N—((S)-1-(4-(4-methylthiazol-5-yl)phenyl)ethyl)pyrrolidine-2-carboxamide] | > 1000 |  | < 10 |  | > 90 | < 50 |
| Cc1ncsc1-c1ccc([C@H](C)NC(=O)[C@@H]2C[C@@H](O)CN2C(=O)[C@@H](n2cc([C@H]3CC[C@H](CN4CCC(c5ccc6c(n5)-n5c(nc(=O)c7c(Cl)cccc75)C65CCCCC5)CC4)CC3)nn2)C(C)(C)C)cc1 [Compound A78, (2S,4R)-1-((S)-2-(4-((1r,4S)-4-((4-(4′-chloro-5′-oxo-5′H-spiro[cyclohexane-1,7′-pyrido[3′,2′: 4,5]pyrrolo[1,2-a]quinazolin]-10′-yl)piperidin-1-yl)methyl)cyclohexyl)-1H-1,2,3-triazol-1-yl)-3,3-dimethylbutanoyl)-4-hydroxy-N—((S)-1-(4-(4-methylthiazol-5-yl)phenyl)ethyl)pyrrolidine-2-carboxamide] | > 1000 | 70 to 90 | 10 to 100 |  |  |  |
| Cc1ncsc1-c1ccc([C@H](CN2CCC(C(F)(F)F)CC2)NC(=O)[C@@H]2C[C@@H](O)CN2C(=O)[C@@H](n2cc([C@H]3CC[C@H](CN4CCC(c5ccc6c(c5)-n5c(nc(=O)c7c(Cl)cccc75)C65CCCCC5)CC4)CC3)nn2)C(C)(C)C)cc1 [Compound A83, (2S,4R)-1-((S)-2-(4-((1r,4S)-4-((4-(4′-chloro-5′-oxo-5′H-spiro[cyclohexane-1,7′-indolo[1,2-a]quinazolin]-10′-yl)piperidin-1-yl)methyl)cyclohexyl)-1H-1,2,3-triazol-1-yl)-3,3-dimethylbutanoyl)-4-hydroxy-N-(®-1-(4-(4-methylthiazol-5-yl)phenyl)-2-(4-(trifluoromethyl)piperidin-1-yl)ethyl)pyrrolidine-2-carboxamide] | > 1000 |  | < 10 |  | > 90 | 50 to 69 |
